Measured values: patent US20230285280A1, “A DEVICE FOR USE IN THE DELIVERY OF AN ACTIVE AGENT” (ROYAL COLLEGE OF SURGEONS IN IRELAND, priority 2020, published 2023)

Test: Active agent release from scaffold or scaffold+matrix in PBS at 37° C.
Format: physicochemical
Description: Release of nanoparticle-encapsulated active agent (either pirfenidone or prednisolone) from a matrix and release of active agent from a scaffold was assessed in the same manner. In short, one sample (of either a printed mesh (scaffold) or mesh+gel (scaffold and matrix)) per 1.5 mL eppendorf tube was incubated in 1 mL of PBS at 37° C. under agitation in a heated water bath. The release buffer was completely exchanged at selected time points of T=4 hrs, T=24 hrs, T=48 hrs, T=1 week, T=2 weeks, T=3 weeks, and T=4 weeks, T=6 weeks, T=8 weeks, T=10 weeks, T=12 weeks with samples stored at -20° C. until analysis. Release studies were undertaken for up to 28 days and released active agent concentrations were determined via extrapolation from a standard curve. Blank scaffolds (containing no active agent) were tested and readings were subtracted as an additional background control. Samples containing pirfenidone were analysed at 317 nm and samples containing prednisolone were analysed at 245 nm. Using either 3D drug printing or nanoparticle incorporation, it was possible to achieve a rapid release of active agent in the first 24 hours as well as a continuous release of drug over a 28 day period (FIG. 19).

Row | Compound | pirfenidone release when scaffold combined with the hyaluronic acid matrix (higher (50 kDa) molecular weight PCL scaffold, in the presence of the hydrated matrix, FIG. 9B) | pirfenidone release when scaffold combined with the hyaluronic acid matrix (lower molecular weight PCL scaffold, added to the matrix, FIG. 9A) | daily and cumulative prednisolone drug release (from 3D printed PCL scaffolds with no surrounding matrix, FIG. 10) | cumulative prednisolone release (from nanoparticles in a freeze-dried scaffold and hyaluronic acid matrix, FIG. 11)
1 | Cc1ccc(=O)n(-c2ccccc2)c1 [pirfenidone, 5-Methyl-1-phenylpyridin-2-one] | negligible difference | release was slowed |  | 
2 | C[C@]12C=CC(=O)C=C1CC[C@@H]1[C@@H]2[C@@H](O)C[C@@]2(C)[C@H]1CC[C@]2(O)C(=O)CO [prednisolone, 11β-11,17,21-Trihydroxypregna-1,4-diene-3,20-dione] |  |  | biphasic release up to 28 days | rapid and sustained release
